Source: patent US6774123B1, “Methods and compositions for inactivating viruses” (priority 1998, dated 2004)

Legend:
Porcine Parvovirus (PPV) = experiment: Inactivation of porcine parvovirus (PPV), TCID50 titer on PT-1 cells; format: cell-based; conditions: dropped from 7.1 logs, 3 hours, room temperature, dimer 0.1%, detergent = 1% Tween 80, 0.3% TNBP (FIG. 3)
Method: PPV is a non-enveloped virus; it is known to be inactivated with ethyleneimine dimer. The ability of ethyleneimine dimer to inactivate PPV in the presence of a solvent-detergent mixture was determined as follows.
A detergent stock solution (1% Tween 80, 0.3% TNBP in 0.1 M MOPS, 50 mM NaCl, pH 7.0) was prepared. A 5% dimer stock solution was prepared with 250 μl of 0.1 M MOPS, NaCl 50 mM, pH 7.0, and 12.5 μl dimer (ethyleneimine dimer, Dalton Chemical Laboratories, Inc., lot number LB-4-69A-03319). In addition, a quenching solution with a sodium thiosulphate concentration of 0.1M in 0.1 M MOPS, pH 7.0, was prepared.
(a) 9 ml 0.1 M MOPS, 50 mM NaCl, pH 7.0 was combined with 200 μl dimer stock solution. 1.0 ml PPV (PPV stock #1 filtered through 0.22μ filter) was added. The concentration of dimer in the resulting solution was 0.1%. The mixture was incubated at room temperature for a given period of time (0-3 hours). After the given time period, 1.85 ml of the solution was removed, and 0.15 ml quenching solution was added. Quenching occurred over a period of 30 minutes at room temperature. The concentration of sodium thiosulphate in the final solution was […].
(b) 9 ml detergent stock solution was combined with 1.0 ml PPV. The mixture was incubated for 0-3 hours at room temperature. A 2 ml aliquot was removed at each time point for assay. […]

bacteriophage MS2 = experiment: Kinetics of bacteriophage MS2 infectivity inactivation; format: cell-based; conditions: 1 mM trimer, 23° C., pH 7.13, after 30 minutes of incubation (FIG. 1)
Method: Ethyleneimine trimer is known to inactivate the infectivity of bacteriophage MS2. The ability of the trimer to inactivate the infectivity of MS2 in the presence of TNBP and Tween 80 was determined as follows.
A stock of bacteriophage MS2 (ATCC number 15597-B1) was prepared according to conventional procedures (D. L. Rogerson and G. Rushizky, Analytical Biochemistry 67: 675-678 (1975)). Purification was performed by sedimentation of bacteriophage in the presence of 6% polyethylene glycol (PEG 8000, USB) as described in K. Yamamoto and B. Alberts, Virology 40: 734-744 (1970).
Purified phage were suspended in 0.15 M NaCl solution (final bacteriophage stock titer was 5×10^13 pfu/ml) and stored at 4° C. The infectivity (titer) of phage suspension was determined by conventional bilayer technique on LB agar with the F^+ strain of Escherichia coli C-3000 (ATCC number 15597).
Ethyleneimine trimer was prepared as described above. […]
Aliquots of the reaction mixture incubated at 23° C. were taken at five defined time intervals. MS2 infectivity inactivation (log S0/St, where S0 and St are the infectivity (titer) of the suspension before and t min after the start of inactivation) was determined at these five points.

| Compound | titer of the virus (TCID50) after treatment (Porcine Parvovirus (PPV)) [logs] | MS2 infectivity inactivation (log S0/St), trimer alone compared with trimer plus solvent-detergent (bacteriophage MS2) |
| --- | --- | --- |
| NCCN1CC1 [dimer, ethyleneimine dimer] | 3.2 |  |
| NCCNCCN1CC1 [trimer, ethyleneimine trimer] |  | essentially the same infectivity inactivation |
